Measurements as given in patent publication US11168078B2, “Sulfoximine, sulfonimidamide, sulfondiimine and diimidosulfonamide compounds as inhibitors of indoleamine 2,3-dioxygenase” (Shanghai Fochon Pharmaceutical Co., Ltd., priority 2016, dated 2021).

Target: T1, IDO (Homo sapiens, UniProt P14902)
T1 construct: endogenous in cells; host or cells: HeLa cells stimulated with recombinant human interferon-gamma
Assay: IDO Cell-Based NEK Green Assay (NFK Green, N-formyl kynurenine level)
Conditions: Hela cells, 1 mM L-Tryptophan, 100 ng/mL recombinant human interferon-gamma, 2 days, NFK Green fluorescence
Description: IDO Cell-Based NEK Green Assay
Materials: RPMI 1640 (phenol red free) (Invitrogen Cat. No. 11835030), Fetal Bovine Serum (Invitrogen Cat. No. 10099141), Penicillin-Streptomycin (Invitrogen Gibco Cat. No. 15140-122), Cellular assay kit (NTRC, Cat. No. NTRC-GSCell-1K), DMSO (Sigma, Cat. No. D2650), 384 wells_compound plate (Greiner, Cat. No. 781280), 384 wells_assay plate (Greiner, Cat. No. 781091)
The concentrations of test compounds varied from 5 μM to 0.76 nM with 3-fold dilution, 10 points, in duplicates.
Hela cells were seeded at 8,000 cells per well with RPMI/phenol red free media containing 10% FBS in a 384-well tissue culture plate. Mixture of compounds and 1 mM L-Tryptophan were added to cells; and then the recombinant human interferon-gamma was added at the final concentration of 100 ng/mL to activate IDO signaling. The cells were incubated for 2 days in 37° C. incubator with 5% CO2. After that, NFK Green was used to detect the N-formyl kynurenine level by following the commercial kit instruction. The fluorescent signal was measured by Envision plate Reader (excitation, 400/25; emission, 510/20). Curves are fit by XLFIT5 as % inhibition vs. log [compound concentration] using a 4 parameters logistic model 205.
(§1) Select compounds prepared as described above were assayed according to the biological procedures described herein.

T1 sequence (P14902 whole entry): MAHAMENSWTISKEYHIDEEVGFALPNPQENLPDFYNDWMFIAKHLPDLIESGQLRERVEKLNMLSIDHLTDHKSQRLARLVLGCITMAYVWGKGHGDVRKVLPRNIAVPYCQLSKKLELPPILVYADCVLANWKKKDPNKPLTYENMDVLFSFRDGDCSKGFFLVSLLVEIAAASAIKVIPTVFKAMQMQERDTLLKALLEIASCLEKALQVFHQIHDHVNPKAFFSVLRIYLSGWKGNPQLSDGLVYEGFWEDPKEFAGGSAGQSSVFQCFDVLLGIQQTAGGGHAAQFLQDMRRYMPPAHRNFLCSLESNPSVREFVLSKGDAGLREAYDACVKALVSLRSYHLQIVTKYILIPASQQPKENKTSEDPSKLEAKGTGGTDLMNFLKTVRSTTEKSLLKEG

Row | IC50 [nM] | Structure (SMILES)
1 | 64.4 | O=S1(=NCCCNc2nonc2/C(=N/O)Nc2ccc(F)c(Cl)c2)CCC1 [Example 32, (Z)-N-(3-chloro-4-fluorophenyl)-N′-hydroxy-4-((3-((1-oxido-1λ^6-thietan-1-ylidene)amino)propyl)amino)-1,2,5-oxadiazole-3-carboximidamide]
2 | 16.3 | C#Cc1cc(N/C(=N\O)c2nonc2NCCNS(=N)(=O)CC)ccc1F (stereo not shown) [Example 21, (Z)-4-((2-(ethylsulfonoamidimidamido)ethyl)amino)-N-(3-ethynyl-4-fluorophenyl)-N′-hydroxy-1,2,5-oxadiazole-3-carboximidamide]
3 | 23.2 | CN=S(=O)(CCCNc1nonc1/C(=N/O)Nc1ccc(F)c(Cl)c1)NC (stereo not shown) [Example 18, (Z)—N-(3-chloro-4-fluorophenyl)-4-((3-(N,N′-dimethylsulfamidimidoyl)propyl)amino)-N′-hydroxy-1,2,5-oxadiazole-3-carboximidamide]

Target: T1, IDO
Assay: IDO Cell-Based LC/MS Assay
Conditions: Hela cells, 100 ng/mL recombinant human interferon-gamma, 20 hours, LC/MS readout
Description: IDO Cell-Based LC/MS Assay
Materials: RPMI 1640 (phenol red free) (Invitrogen Cat. No. 11835030), Fetal Bovine Serum (Invitrogen Cat. No. 10099141), Penicillin-Streptomycin (Invitrogen Gibco Cat. No. 15140-122), recombinant human interferon-gamma (R&D system, Cat. No. 285-IF-100), 5% (w/v) trichloroacetic acid (Alfa Aesar Cat. No. All 156), DMSO (Sigma, Cat. No. D2650), 96 wells_compound plate (Axygen, Cat. No. WIPP02280), 96 wells_assay plate (Greiner, Cat. No. 655090)
The concentrations of test compounds varied from 5 μM to 0.76 nM with 3-fold dilution, 9 points, in duplicates.
Hela cells were seeded at 40,000 cells per well with RPMI/phenol red free media containing 10% FBS in a 96-well tissue culture plate. After adding compound to cells, 100 ng/mL of recombinant human interferon-gamma was added to activate IDO signaling. The cells were incubated for 20 hours in 37° C. incubator with 5% CO2. Compound treatment was stopped by adding 5% trichloroacetic acid. Subsequently, the cell plate was further incubated at 50° C. for 30 minutes. After precipitation, the supernatant was collected and measured by triple quadrupole mass spectrometer (AB Sciex 4000), coupled with HPLC Shimadzu EC 20 AD and autosampler CTC PAL. Curves are fit by XLFIT5 as % inhibition vs. log [compound concentration] using a 4 parameters logistic model 205.
as §1

Row | IC50 [nM] | Structure (SMILES)
4 | 40 | CN=S(C)(=O)NCCNc1nonc1C(=NO)Nc1ccc(F)c(Br)c1 (stereo not shown) [Example 11, (Z)—N-(3-bromo-4-fluorophenyl)-N′-hydroxy-4-((2-(N′-methylmethylsulfonoamidimidamido)ethyl)amino)-1,2,5-oxadiazole-3-carboximidamide]
5 | 12.3 | CS(=N)(=O)NCCNc1nonc1/C(=N/O)Nc1ccc(F)c(Cl)c1 (stereo not shown) [Example 12, (Z)—N-(3-chloro-4-fluorophenyl)-N′-hydroxy-4-((2-(methylsulfonoimidamido)-ethyl)amino)-1,2,5-oxadiazole-3-carboximidamide]
6 | 477 | O=S1(=NCCNc2nonc2/C(=N/O)Nc2ccc(F)c(Br)c2)CCCCC1 [Example 4, (Z)—N-(3-bromo-4-fluorophenyl)-N′-hydroxy-4-((2-((1-oxidotetrahydro-2H-1λ^6-thiopyran-1-ylidene)amino)ethyl)amino)-1,2,5-oxadiazole-3-carboximidamide]
7 | 311 | CS(=N)(=O)NCCNc1nonc1/C(=N/O)Nc1ccc(F)c(C#N)c1 (stereo not shown) [Example 13, (Z)—N-(3-cyano-4-fluorophenyl)-N′-hydroxy-4-((2-(methylsulfonoimidamido)-ethyl)amino)-1,2,5-oxadiazole-3-carboximidamide]
8 | 195 | O=S1(=NCCNc2nonc2/C(=N/O)Nc2ccc(F)c(Br)c2)CCCC1 [Example 5, (Z)—N-(3-bromo-4-fluorophenyl)-N′-hydroxy-4-((2-((1-oxidotetrahydro-1λ^6-thiophen-1-ylidene)amino)ethyl)amino)-1,2,5-oxadiazole-3-carboximidamide]
9 | 123 | CC(CNc1nonc1/C(=N/O)Nc1ccc(F)c(Br)c1)NS(C)(=N)=O (stereo not shown) [Example 9, (Z)—N-(3-bromo-4-fluorophenyl)-N′-hydroxy-4-((2-(methylsulfonoimidamido)propyl)amino)-1,2,5-oxadiazole-3-carboximidamide]
10 | 298 | CCS(=N)(=O)NCCNc1nonc1/C(=N/O)Nc1cccc(C(F)(F)F)c1 (stereo not shown) [Example 16, (Z)-4-((2-(ethylsulfonoimidamido)ethyl)amino)-N′-hydroxy-N-(3-(trifluoromethyl)phenyl)-1,2,5-oxadiazole-3-carboximidamide]
11 | 270 | CCS(=O)(CC)=NCCNc1nonc1/C(=N/O)Nc1ccc(F)c(Br)c1 [Example 2, (Z)—N-(3-bromo-4-fluorophenyl)-4-((2-((diethyl(oxo)-λ^6-sulfanylidene)amino)ethyl)amino)-N′-hydroxy-1,2,5-oxadiazole-3-carboximidamide]
12 | 153 | O=S1(=NCCNc2nonc2/C(=N/O)Nc2ccc(F)c(Br)c2)CCOCC1 [Example 3, (Z)—N-(3-bromo-4-fluorophenyl)-N′-hydroxy-4-((2-((4-oxido-1,4λ^6-oxathian-4-ylidene)amino)ethyl)amino)-1,2,5-oxadiazole-3-carboximidamide]
13 | 244 | CC(CNS(C)(=N)=O)Nc1nonc1/C(=N/O)Nc1ccc(F)c(Br)c1 (stereo not shown) [Example 10, (Z)—N-(3-bromo-4-fluorophenyl)-N′-hydroxy-4-((1-(methylsulfonoimidamido)propan-2-yl)amino)-1,2,5-oxadiazole-3-carboximidamide]
